Here are results for six molecules from patent US20040121357A1, “Artificial endonuclease” (priority 2004, published 2004).

Entries after “also recorded” stand apart in the source; their conditions may differ. Where no end group is shown, it is not given here. Bounds are passed on as bounds.

The subject of data set [1] is ^32P-labeled fragment of pBR322. In words: Cleavage of 32P-labeled DNA fragment, acrylamide gel electrophoresis. The format is biochemical. The note with it: 40 μM Ce^4+, 37° C. overnight. As to the method:
FIG. 10. Sequence specificity of artificial endonucleases. […] Controls (water) were conducted to measure background cleavage. […] Minor products run with Maxam-Gilbert lanes.
Sequence Selective DNA Cleavage. […] This cleavage is not dependent on the strain inherent in supercoiled plasmid, as cleavage of linearized ^32P-labeled DNA oligonucleotides was observed as well. Labeled fragments were incubated with Ce(NH3)6(NO3)4 and varying concentrations of peptides P3 or P3W at 37° C. overnight and analyzed by acrylamide gel electrophoresis (FIG. 10). Cleavage was concentration dependent, and distinct between metallopeptides.

A short description of data set [2]: Hydrolysis of bis-nitrophenylphosphate (BNPP) followed spectrophotometrically at 400 nm. The format is biochemical. Conditions: for Rates (K(obs)) of BNPP cleavage: 500 μM BNPP, 37° C. From the text:
To test hydrolytic activity, the hydrolysis of binitrophenylphosphate (BNPP) is followed. The absorbance increase at 400 nm is due to liberated 4-nitrophenolate which can be monitored over time to give rate constants. The rate reflects the relative accessibility and reactivity of the active site, and can be compared to the rates observed for the hydrolytically active peptide or polypeptide.
Hydrolytic Phosphate Cleavage. Because the EF-Hand is physiologically strictly a structural motif, an isolated Ca-binding loop's ability to affect hydrolytic cleavage was addressed. The hydrolysis of bis-nitrophenylphosphate (BNPP) was followed spectrophotometrically under turnover conditions. The absorbance increase at 400 nm due to liberated 4-nitrophenolate was observed over the initial 10-14 hours of the reaction (<10% BNPP converted). […] Plots of absorbance vs. time were converted to concentration units (ε=18,500 M^−1 cm^−1) to give first order rate constants (Sardesai et al., 1994).

Data set [3] has as its system supercoiled plasmid DNA (pBR322). Nature of the data set: DNA gel shift assay (agarose gel electrophoresis). The format is binding. The note with it: for Gel shift / affinity for supercoiled plasmid DNA (in words): 5-25 μM ligand, 15 minutes, room temperature. As for the experimental part:
DNA Gel Shift Assays. The affinity of EuP3, EuP2, and each free peptide for supercoiled plasmid DNA was examined by agarose gel electrophoresis. Plasmid (pBR322, New England Biolabs, Inc.) was incubated for 15 minutes at room temperature with increasing concentrations of each ligand (5-25 μM), prior to the addition of loading dye. Each lane contained 1 μg plasmid (50 μM base pairs) in 10 mM Tris buffer at pH 8.0. […] The interaction of ligand with supercoiled plasmid (type I) can be observed if run under conditions where the DNA-ligand interactions are not disturbed during electrophoresis. Supercoiled pBR322 was chosen as a standard plasmid, and was incubated for 15 minutes with EuCl3, EuP3, EuP2, or free peptide prior to electrophoresis. This small, 4,361 bp plasmid contains three [NT] sequences, and eight […] sequences, partial target sequences for engrailed homeodomain. In the absence of 0.1 M EDTA (normally added prior to electrophoresis to quench hydrolytic cleavage assays) and with short incubation times to minimize metal-catalyzed cleavage, a gel shift can be observed. […] From quantified concentration-dependent gel shift data, an estimate of the binding affinity of EuP3 can be made. Gels with increasing Eu-peptide concentrations (5 to 25 μM in each set) were quantified (ImageQuant; Molecular Simulations), and average band volumes were plotted versus concentration. […] Each graphed point represents data averaged from three gel experiments.
(In general: In EMSA bound probe runs differently from free probe, usually more slowly.)

Data set [4] in a line: Circular dichroism titration of peptides with Eu(III) (incl. TFE helix induction). Conditions: initial portion of the curve (0-50 μM Eu(III)); read-out: Metal binding affinity (K1, Kd) estimated from CD titration.
Another data set concerns supercoiled plasmid DNA. In words: Cleavage of supercoiled plasmid DNA, agarose gel electrophoresis. It counts as biochemical. The note with it: for Dependence of cleavage activity on concentration (in words): increasing metallopeptide concentration. As for the experimental part: FIG. 8. […] Samples containing 1 μg plasmid (about 60 μM b.p.) in 10 mM Tris buffer, pH=7.0, were incubated for 48 hours at 37° C. Reactions were quenched by the addition of 0.5 M EDTA to a final concentration of 10 mM, followed by addition of 100 mM KCl. The reaction mixtures were then treated with Amberlyst cation exchange resin prior to electrophoresis. Lane 1: pUC19 DNA control; lanes 2-5: DNA plus increasing concentrations of EuC13 (20, 30, 50 and 100 μM); lanes 6-9: DNA plus increasing concentrations of free P3 (20, 30, 50 and 100 μM); lanes 10-15: DNA plus increasing concentrations of 1:1 Eu:P3 (10, 20, 30, 40, 50 and 100 μM).
The conversion of supercoiled plasmid (type I) to open circular (type II), linear (type III), or smaller fragments was monitored by agarose gel electrophoresis. Because the synthetic peptides bind strongly to DNA, thus preventing the observation of products, the peptides were chelated prior to electrophoresis (Falke et al., 1994). At the point each reaction was quenched (0.1 M EDTA), a suspension of neutral, washed, cation resin (Amberlyst, 10-20 μL) was incubated with each sample for 30 minutes, spun down, and the supernatent loaded into wells. After 24 hours of reaction (incubated at 37° C.), the concentration-dependent formation of open circular plasmid was observed (FIG. 8). […] Over a 10-300 μM EuP3 gradient, nicking occurred from 10-150 μM, with the greatest amount of cleavage at 30 μM EuP3.

Data set [5] deals with the molecule itself. In words: dimerization constant of Eu(III)-bound P4a (self-association); called 'measured', method not stated.
Data set [6] deals with the molecule itself. In words: dimerization constant (self-association) from CD titration of P3 with Eu(III), helicity at 222 nm. As for the experimental part:
Circular Dichroism Titrations. The titration of P2 and P3 peptides with Eu(III) and Ca(II) was followed by circular dichroism spectroscopy on an Aviv 60DS spectrophotometer at 25° C. Samples (50 μM peptide) were scanned from 260 to 200 nm (0.1 mm pathlength cell, 1.0 nm bandwidth, 0.5 nm resolution), in 10 mM Tris(hydroxymethyl)aminomethane buffer (Tris; pH=7.8). Eu(III) and Ca(II) were added as the chlorides. Aliquots of 10 mM stock metal solutions were added to a maximum of 10 equivalents.
The secondary structure of P3 as a function of metal was followed by CD, calculating the % α-helicity from the molar ellipticity at 222 nm (100% helical=−31,500 deg cm² dmol⁻¹). With the addition of Eu(III) to P3, the helicity increases from 9 to 25%, showing enhanced structure correlated to metal-coordination. This increase in structure with added metal describes a curve which has an inflection point at approximately 1:1 Eu:P3, then continues to a 25% helical metal-saturated form. […] A second structural change, correlating to the discrete back-to-back dimerization which has been well characterized for similar EF-Hand peptides systems occurs at Kdim about 80 μM (Shaw et al., 1991; Wójcik et al., 1997; Clarke et al., 1993; Shaw et al., 1990; Maurer et al., 1995). […]

Data set [7] deals with the molecule itself. In words: dimerization constant of Eu(III)-bound P3 (self-association); isothermal titration microcalorimetry. On the technique in general: Isothermal titration calorimetry measures the heat released or taken up as one component is titrated into another.
[8] abbreviates: 10 μM Eu/10 μM peptide, pH 7.7, 10 mM Tris.
Setting [9] is: 25 μM Eu/25 μM peptide, pH 7.7, 10 mM Tris.
Where [10] appears, read: 25 μM Eu/50 μM peptide, pH 7.7, 10 mM Tris.
[11] abbreviates: 10-300 μM EuP3 gradient, 37° C.

Take `O=[N+]([O-])[O-].O=[N+]([O-])[O-].O=[N+]([O-])[O-].O=[N+]([O-])[O-].O=[N+]([O-])[O-].O=[N+]([O-])[O-].[Ce+4].[NH4+].[NH4+]` [Ce^4+, (NH4)2 Ce(NO3)6]: the “Regioselectivity of cleavage: termini produced” value in data set [1] is “both 3′ and 5′ termini”.
For the molecule `[Cl][Eu]([Cl])[Cl]` [EuCl3, reference compound], the “Rates (K(obs)) of BNPP cleavage” value in data set [2] (10 μM Eu/0 μM peptide, pH 7.7, 5 mM Tris) came out at 5.2 ± 0.6 s^−1 × 10^7; in data set [2] (10 μM Eu/0 μM peptide, pH 7.7, 10 mM Tris), 1.4 s^−1 × 10^7; in data set [2] (12 μM Eu/0 μM peptide, pH 7.7, 5 mM Tris) it was 5.7 ± 0.3 s^−1 × 10^7; in data set [2] (15 μM Eu/0 μM peptide, pH 7.7, 10 mM Tris), 2.0 s^−1 × 10^7; in data set [2] (20 μM Eu/0 μM peptide, pH 7.7, 5 mM Tris), 19 ± 3 s^−1 × 10^7; in data set [2] (20 μM Eu/0 μM peptide, pH 7.7, 10 mM Tris), 2.7 s^−1 × 10^7. The “Gel shift / affinity for supercoiled plasmid DNA (in words)” value in data set [3] is “not”.
In the case of “EuP3: Eu(III)-bound peptide P3 (1:1 Eu-peptide) (TERRRQQLDKDGDGTIDEREIKIHFQNKRAKIK)”, the “BNPP catalysis compared with free Eu(III) (in words)” value in data set [2] is on record as “may not be as fast as free Eu(III) catalysis”. The “Rates (K(obs)) of BNPP cleavage” value is 6.0 s^−1 × 10^7 in data set [2] (setting [8]); 7.3 s^−1 × 10^7 in data set [2] (setting [9]); 20.6 s^−1 × 10^7 in data set [2] (setting [10]); 17.5 ± 4 s^−1 × 10^7 in data set [2] (50 μM Eu/50 μM peptide, pH 7.7, 5 mM Tris); 11.5 ± 4 s^−1 × 10^7 in data set [2] (50 μM Eu/100 μM peptide, pH 7.7, 5 mM Tris). For the same molecule, the Kd in data set [4] is no more than 20 µM. For the same molecule, the “Concentration causing a gel shift of supercoiled plasmid DNA” value in data set [3] (50 μM base pairs) is no less than 10 µM. In addition, the “Gel shift / affinity for supercoiled plasmid DNA (in words)” value in data set [3] was “significant affinity for supercoiled plasmid DNA; also recorded: gel shift and disappearance of type I plasmid occurs; also recorded: DNA-binding affinity in the micromolar regime; also recorded: disappearance of type I band”. Also, the “Estimate of DNA binding affinity from quantified gel shift data” value in data set [3] (disappearance of type I band, 5 to 25 μM, average of three gels) was roughly 20 µM. In addition, in the data set with supercoiled plasmid DNA (setting [11]), the “Concentration range in which nicking occurred” value fell in the range of 10 to 150 µM. The “Concentration with the greatest amount of cleavage” value in the data set with supercoiled plasmid DNA (setting [11]) stood at 30 µM. For the same molecule, the “Cleavage of supercoiled plasmid DNA (in words)” value in the data set on supercoiled plasmid DNA (37° C., pUC19 for EuP3, Eu(III) and Ce(IV) complexes for P3W) is on record as “catalyzes the cleavage of supercoiled, double-stranded DNA; also recorded: cleavage of pUC19 plasmid DNA”. Besides, the “Dependence of cleavage activity on concentration (in words)” value with supercoiled plasmid DNA is “falls off with increasing concentration”.
On to “EuP4a: Eu(III)-bound peptide P4a (TERRRFDKDGNGYISAAELRHVKIWFQNKRAKIK)”, for which the “Rates (K(obs)) of BNPP cleavage” value in data set [2] (setting [8]) was 11.3 s^−1 × 10^7; in data set [2] (setting [9]) it was 56.3 s^−1 × 10^7; in data set [2] (setting [10]), 62.0 s^−1 × 10^7; in data set [2] (50 μM Eu/50 μM peptide, pH 7.7, 10 mM Tris) it was 149.5 s^−1 × 10^7; in data set [2] (50 μM Eu/100 μM peptide, pH 7.7, 10 mM Tris) it was 212.0 s^−1 × 10^7. Besides, in the data set on supercoiled plasmid DNA, the “Dependence of cleavage activity on concentration (in words)” value is on record as “does not”.

B1: P4a (peptide)
peptide: TERRRFDKDGNGYISAAELRHVKIWFQNKRAKIK
modifications: also: Eu(III) complex, dimer EuP4a2
notes: The entry describes the monomer; also called EuP4a; EuP4a2 (dimer)
As for B1, the Kd in data set [5] was no less than 300 µM.

B2: P3 (peptide)
peptide: TERRRQQLDKDGDGTIDEREIKIHFQNKRAKIK
modifications: also: Eu(III) complex, Eu(III) organizes two peptides into back-to-back dimer
notes: In the dimerization experiments it stood with Eu(III) (EuCl3); The entry describes the monomer; also called EuP3; peptide P3
On to B2, for which the Kd in data set [6] was roughly 80 µM; in data set [7] it was no less than 80 µM.
